Holding throughout (experiment): NCI anticancer screen, dose series, 48 h
Experiment [1] relates to TK-10 renal.
Experiment [2] deals with CAKI-1 renal.
Experiment [3] deals with LOX IMVI melanoma.
For experiment [4], the system named is SN12C renal.
In experiment [5] the test system is MALME-3M melanoma.
Experiment [6] has as its system CCRF-CEM leukemia.
Experiment [7] relates to SK-MEL-28 melanoma.
Experiment [8] relates to SK-OV-3 ovarian.
Experiment [9] concerns NCI-H23 lung.
The subject of experiment [10] is HCT-15 colon.
In experiment [11] the test system is OVCAR-8 ovarian.
Experiment [12] relates to BT-549 breast.
Experiment [13] has as its system ACHN renal.
Experiment [14] deals with SW-620 colon.
Experiment [15] deals with IGROV1 ovarian.
For experiment [16], the system named is MDA-N.
For experiment [17], the system named is EKVX NSCLC.
Experiment [18] has as its system 786-0 renal.
The test system of experiment [19] is SK-MEL-2 melanoma.
The test system of experiment [20] is HCC-2998 colon.

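Interpolation was linear, between the two tested concentrations surrounding the appropriate level; five concentrations were tested over 48 hours in 96-well plates. TGI marks complete inhibition of growth.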 Bounds are passed on as bounds.

With `CC(O)C1(CNc2cc(Cl)nc(N)n2)CC(CCc2ccccc2)C1` (configuration not stated), the TGI in experiment [1] amounted to 43.1 µM; in [2] it was 29.4 µM; in experiment [3], 16.9 µM; in experiment [4], 20.9 µM; in [5], 26.4 µM; in experiment [6], 94.5 µM. Further, the TGI in experiment [7] is 27.8 µM; in experiment [8], 29.2 µM; in experiment [9] it was 19.4 µM; in experiment [10], 24 µM; in experiment [11], 32 µM; in experiment [12] it was 33.6 µM. Moreover, the TGI in experiment [13] worked out at 22.2 µM; in experiment [14] it was 29.3 µM; in [15], 28.4 µM; in experiment [16] it was 27.6 µM; in [17], 37.3 µM; in experiment [18], 39 µM. Moreover, the TGI in experiment [19] came to 31.7 µM.

As to `COc1ccc2c(ccc3c(COC(=O)NC(C)C)c(COC(=O)NC(C)C)n(C)c32)c1`, the TGI was 47.8 µM in experiment [1]; 8.56 µM in [2]; 19.6 µM in experiment [3]; 12.2 µM in experiment [5]; over 100 µM in experiment [6]; 32.5 µM in [8]. The TGI in experiment [9] amounted to 16 µM; in experiment [10] it was 28.9 µM; in [11] it was 34.2 µM; in experiment [12], 29.4 µM; in [13], 7.13 µM; in experiment [14], 32.8 µM. Besides, the TGI in experiment [15] was determined as 26 µM; in experiment [16] it was 24.7 µM; in [17], 44.8 µM; in [18], 20.8 µM; in [19] it was 32.5 µM.

Take `CCC1C(=O)C(O)[C@H]2[C@@H]3C(O)CC4=CC(=O)CC[C@]4(C)[C@H]3CC[C@]12C` (some centres not stated): the TGI in experiment [20], in [1], in experiment [2], in experiment [3], in experiment [4] and in experiment [5] was over 50 µM in each case. Besides, the TGI in [6], in experiment [7], in experiment [8], in experiment [9], in experiment [10] and in [11] was over 50 µM each time. The TGI in experiment [13], in experiment [14], in experiment [15], in experiment [16], in experiment [17] and in [18] was over 50 µM in each case. Besides, the TGI in experiment [19] was over 50 µM.

As to `CN(C)/C=N/NC(=O)/C(C#N)=C/N(C)C`, the TGI in [20], in experiment [1], in experiment [2], in experiment [3], in experiment [4] and in experiment [5] was over 100 µM in each case. For the same compound, the TGI in [6], in [7], in [8], in experiment [9], in experiment [10] and in [11] was over 100 µM in each case. The TGI in experiment [13], in experiment [14], in [15], in experiment [16], in [17] and in experiment [18] was over 100 µM each time. This compound had a TGI in experiment [19] of over 100 µM.

As to `CC(=O)O[C@H]1CCC2[C@@H]3CCC4Cc5nc6c(nc5C[C@]4(C)C3CC[C@@]21C)CC1CC[C@@H]2C(CC[C@@]3(C)C2CC[C@@H]3C(C)CCCC(C)C)[C@@]1(C)C6` (some centres not stated), the TGI in [1], in experiment [3], in [4], in experiment [5], in experiment [6] and in experiment [7] was over 100 µM in each case. For the same compound, the TGI in experiment [8], in [9], in experiment [10], in [11], in experiment [12] and in experiment [13] was over 100 µM each time. Further, the TGI in experiment [14], in experiment [15], in [16], in experiment [17], in experiment [18] and in [19] was over 100 µM each time.

`COC(=O)C1C2CC3C1C3C2C(=O)OC` (configuration not stated): the TGI in experiment [20], in experiment [1], in experiment [2], in experiment [3], in experiment [4] and in experiment [5] was over 100 µM each time. The TGI in experiment [6], in experiment [7], in [8], in [9], in experiment [10] and in [11] was over 100 µM each time. Moreover, the TGI in experiment [13], in experiment [14], in [15], in experiment [16], in experiment [17] and in experiment [18] was over 100 µM each time. This compound had a TGI in [19] of over 100 µM.

Regarding `C1=NCCNCCNCCN=Cc2ccccc2OCc2cccc(n2)COc2ccccc21`, the TGI in experiment [2] was over 100 µM; in experiment [4] it was over 100 µM; in experiment [5], over 100 µM; in experiment [6] it was 55.1 µM; in [7], over 100 µM; in experiment [8], over 100 µM. For the same compound, the TGI in experiment [9] was over 100 µM; in experiment [10], over 100 µM; in [11], 84.4 µM; in experiment [12], over 100 µM; in experiment [13], 83.4 µM; in experiment [14] it was over 100 µM. In addition, the TGI is over 100 µM in [15]; 45.3 µM in [16]; over 100 µM in experiment [17]; over 100 µM in experiment [18]; over 100 µM in [19].

As for `O=c1[nH]c(=O)n(C2CC(O)C(CO)O2)cc1OCC1CCCCC1` (configuration not stated), the TGI in experiment [1], in experiment [2], in [3], in experiment [4], in experiment [5] and in experiment [6] was over 100 µM throughout. For the same compound, the TGI in [7], in experiment [8], in [9], in experiment [10], in experiment [11] and in experiment [12] was over 100 µM each time. The TGI in experiment [13], in experiment [15], in [16], in [17] and in experiment [18] was over 100 µM throughout.

`COc1cc(S(=O)(=O)Nc2nc(-c3ccc(N4C(=O)/C(=C/c5ccccc5[N+](=O)[O-])N=C4c4ccccc4)cc3)cs2)ccc1Cl`: the TGI in [1], in [2], in experiment [3], in [4], in [5] and in experiment [6] was over 100 µM in each case. The TGI in experiment [7] is over 100 µM; in [8] it was over 100 µM; in experiment [9], over 100 µM; in experiment [10] it was over 100 µM; in experiment [11], over 100 µM; in experiment [12], 74.7 µM. Also, the TGI in experiment [13], in experiment [14], in experiment [15], in experiment [16], in [18] and in experiment [19] was over 100 µM throughout.

Turning to `Cc1nc2ccccc2c(=O)n1NC(=S)Nc1ccc(Cl)cc1[N+](=O)[O-]`, the TGI in experiment [1], in experiment [2], in experiment [4], in experiment [5], in experiment [6] and in experiment [7] was over 100 µM in each case. Besides, the TGI in experiment [8], in experiment [9], in experiment [10], in [11], in [12] and in experiment [13] was over 100 µM in each case. Also, the TGI in experiment [14], in experiment [15], in [16], in [17], in [18] and in experiment [19] was over 100 µM in each case.

For `COc1cc(N(Cc2ccc3nc(OC)c(OC)nc3c2)Cc2ccc3nc(OC)c(OC)nc3c2)cc(OC)c1OC`, the TGI in experiment [1], in experiment [2], in experiment [3], in experiment [4], in experiment [5] and in experiment [7] was over 50 µM throughout. In addition, the TGI in experiment [8], in [9], in experiment [10], in [11], in experiment [12] and in [13] was over 50 µM in each case. The TGI in experiment [14], in [16], in [17], in experiment [18] and in [19] was over 50 µM in each case.

As for `COc1cccc(Cc2cc(=O)c3ccc(C)nc3[nH]2)c1`, the TGI in experiment [1], in experiment [2], in [3], in experiment [4], in experiment [5] and in experiment [6] was over 100 µM each time. The TGI in experiment [7], in [8], in experiment [9], in experiment [10], in experiment [11] and in [12] was over 100 µM in each case. In addition, the TGI in experiment [14], in experiment [15], in experiment [16], in experiment [17], in experiment [18] and in experiment [19] was over 100 µM each time.

For `CCOC(=O)C1=CC(C)(C(=O)OCC)Nc2c(nc(OC)[nH]c2=O)N1` (configuration not stated), the TGI in experiment [20], in experiment [1], in experiment [2], in experiment [3], in [4] and in experiment [5] was over 10 µM in each case. In addition, the TGI in [6], in [7], in experiment [8], in [9], in [10] and in experiment [11] was over 10 µM in each case. For the same compound, the TGI in [13], in [14], in [15], in experiment [16], in experiment [17] and in experiment [18] was over 10 µM each time. Also, the TGI in experiment [19] was over 10 µM.

`CC(C)(C)OC(=O)C1CC[C@@H](CC(=O)Oc2ccc([N+](=O)[O-])cc2)N1` (some centres not stated): the TGI in [20], in experiment [1], in [2], in experiment [3], in experiment [4] and in experiment [5] was over 100 µM each time. The TGI in experiment [6], in experiment [7], in experiment [8], in experiment [9], in experiment [10] and in experiment [11] was over 100 µM each time. In addition, the TGI in experiment [13], in experiment [14], in experiment [15], in [16], in experiment [17] and in experiment [18] was over 100 µM throughout. For the same compound, the TGI in experiment [19] is over 100 µM.

As for `O=c1[nH]c(-n2[nH]c3c(c2=O)CCCC3)nc(O)c1-c1ccccc1`, the TGI in experiment [1], in experiment [2], in experiment [4], in experiment [5], in [6] and in experiment [7] was over 100 µM throughout. Also, the TGI in experiment [8], in experiment [9], in experiment [10], in experiment [11], in [12] and in experiment [13] was over 100 µM throughout. Moreover, the TGI in experiment [14], in [15], in experiment [16], in experiment [17], in experiment [18] and in experiment [19] was over 100 µM each time.

The values are drawn from PubChem BioAssay (NCI).
